Values quoted from earlier work as cited in patent US7618987B2, “Acylated piperidine derivatives as melanocortin 4-receptor agonists” (Merck & Co., Inc., priority 2004, dated 2009).

Columns and labels:
[1] = tested on: males with psychogenic erectile dysfunction
[2] = in vivo, po

Q: For “Ac-Nle-c[Asp-His-DPhe-Arg-Trp-Lys]-NH2 [MT-II]”, which adverse reactions observed ([1]; in vivo) is on record?
A: nausea, flushing, loss of appetite, stretching, and yawning

Q: And the duration of action ([1]; in vivo)?
A: approximately 2.5 hours

Q: And the “time to onset of erection” value ([1]; in vivo)?
A: 10 to 20 min

Q: And the response rate ([1]; injected intramuscularly or subcutaneously)?
A: 75%

Q: What about the “absorption into the systemic circulation” value [2] of the same substance?
A: not absorbed into the systemic circulation
